For 15 compounds, IC50 results are on record in patent US20250179103A1, “6-OXODECAHYDROPYRROLO[1,2-A][1,5]DIAZOCINE AND 6-OXODECAHYDRO-4H-PYRROLO[2,1-D][1,5]THIAZOCINE DERIVATIVES AS STAT3 AND STAT6 MODULATORS FOR THE TREATMENT OF CANCER AND INFLAMMATORY CONDITIONS” (Recludix Pharma, Inc., priority 2022, published 2025).

In experiment [1] the target is T1, Recombinant STAT6 protein (STAT6(W123-T658)) (Homo sapiens, UniProt P42226).
T1 construct: Recombinant STAT6 protein (STAT6(W123-T658))
T1 sequence (P42226 123-658): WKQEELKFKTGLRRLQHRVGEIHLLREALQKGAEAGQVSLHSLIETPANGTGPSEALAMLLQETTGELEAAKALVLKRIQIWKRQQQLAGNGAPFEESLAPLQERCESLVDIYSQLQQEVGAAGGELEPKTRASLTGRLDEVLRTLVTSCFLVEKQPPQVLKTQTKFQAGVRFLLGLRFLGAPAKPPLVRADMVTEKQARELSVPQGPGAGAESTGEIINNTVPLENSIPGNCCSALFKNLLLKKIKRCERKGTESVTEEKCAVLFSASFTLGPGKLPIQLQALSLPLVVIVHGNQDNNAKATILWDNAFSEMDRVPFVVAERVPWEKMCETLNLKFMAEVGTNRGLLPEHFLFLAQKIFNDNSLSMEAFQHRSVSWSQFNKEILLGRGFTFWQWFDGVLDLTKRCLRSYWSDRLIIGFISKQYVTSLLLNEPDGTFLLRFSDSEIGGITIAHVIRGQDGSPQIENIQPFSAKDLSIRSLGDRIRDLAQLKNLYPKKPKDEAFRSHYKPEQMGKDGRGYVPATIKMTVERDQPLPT
As to the kind of experiment: STAT6 Fluorescence Polarization (FP) Assay. In kind it is binding. The note with it: STAT6(W123-T658) 250 nM, probe 5-FAM-ApYKPFQDLI-NH2 2 nM, 45-minute incubation. An outline of the steps:
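Displacement of a fluorescent phosphotyrosine peptide (5-FAM-ApYKPFQDLI-NH2, 2 nM) from STAT6(W123-T658) (250 nM), 1% DMSO, pH 7.4 HEPES buffer. After 45 min at room temperature, polarization (mP) was plotted versus log compound concentration and fitted by nonlinear regression to give IC50.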

Experiment [2] has as its target T2, Recombinant STAT3 protein (STAT3(G127-I722)) (Homo sapiens, UniProt P40763).
T2 construct: Recombinant STAT3 protein (STAT3(G127-I722))
As to the kind of experiment: STAT3 Fluorescence Polarization (FP) Assay. It is filed as binding. The note with it: STAT3(G127-I722) 25 nM, probe 5-FAM-GpYLPQTV-NH2 2 nM, 45-minute incubation. An outline of the steps: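 Fluorescence polarization after a 45-min room-temperature incubation measured compound displacement of a 2 nM fluorescein-labelled phosphotyrosine peptide (5-FAM-GpYLPQTV-NH2) from 25 nM recombinant STAT3(G127-I722). Buffer was 10 mM HEPES pH 7.4 with 1% DMSO final. IC50s were fitted by nonlinear regression of mP against log concentration.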

SMILES strings stand for the structures.

T2 sequence (P40763 127-722): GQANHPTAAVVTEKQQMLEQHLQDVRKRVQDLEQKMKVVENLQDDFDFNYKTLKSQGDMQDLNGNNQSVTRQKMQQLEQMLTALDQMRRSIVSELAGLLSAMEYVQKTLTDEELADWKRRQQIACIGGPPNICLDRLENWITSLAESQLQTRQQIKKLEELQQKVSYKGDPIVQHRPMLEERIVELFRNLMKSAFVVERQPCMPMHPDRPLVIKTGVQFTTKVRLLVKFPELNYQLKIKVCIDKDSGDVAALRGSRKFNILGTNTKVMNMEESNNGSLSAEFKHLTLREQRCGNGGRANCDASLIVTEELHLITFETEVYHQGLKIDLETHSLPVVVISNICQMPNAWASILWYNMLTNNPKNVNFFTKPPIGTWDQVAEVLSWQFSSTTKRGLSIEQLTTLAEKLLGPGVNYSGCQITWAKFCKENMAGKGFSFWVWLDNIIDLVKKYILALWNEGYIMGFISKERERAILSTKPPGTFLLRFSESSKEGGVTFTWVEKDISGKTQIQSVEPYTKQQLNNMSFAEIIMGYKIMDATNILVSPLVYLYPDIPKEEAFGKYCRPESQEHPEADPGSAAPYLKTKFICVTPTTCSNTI

In the case of `CC(=O)N1CC[C@H]2CC[C@@H](C(=O)Nc3ccc4nccnc4c3)N2C(=O)[C@@H](NC(=O)c2cc3cc(C(F)(F)P(=O)(O)O)ccc3s2)C1` [Compound 69, ((2-(((5S,8S,10aR)-3-aceytl-6-oxo-8-(quinoxalin-6-ylcarbamoyl)decahydropyrrolo[1,2-a][1,5]diazocin-5-yl)carbamoyl)benzo[b]thiophen-5-yl)difluoromethyl)phosphonic acid], the figures for the concentration for half-maximal inhibition (IC50) in experiment [1] and in experiment [2] were 300 to 3000 nM and 1000 to 10000 nM, respectively.
In the same order, the values of `CC(=O)N1CC[C@H]2CC[C@@H](C(=O)Nc3ccc(S(C)(=O)=O)cc3)N2C(=O)[C@@H](NC(=O)c2cc3cc(C(F)(F)P(=O)(O)O)ccc3s2)C1` [Compound 70, ((2-(((5S,8S,10aR)-3-acetyl-8-((4-(methylsulfonyl)phenyl)carbamoyl)-6-oxodecahydropyrrolo[1,2-a][1,5]diazocin-5-yl)carbamoyl)benzo[b]thiophen-5-yl)difluoromethyl)phosphonic acid] are 300 to 3000 nM and 1000 to 10000 nM.
As for `CC(=O)N1CC[C@H]2CC[C@@H](C(=O)Nc3ccc(=O)n(C)c3)N2C(=O)[C@@H](NC(=O)c2cc3cc(C(F)(F)P(=O)(O)O)ccc3s2)C1` [Compound 71, ((2-(((5S,8S,10aR)-3-acetyl-8-((1-methyl-6-oxo-1,6-dihydropyridin-3-yl)carbamoyl)-6-oxodecahydropyrrolo[1,2-a][1,5]diazocin-5-yl)carbamoyl)benzo[b]thiophen-5-yl)difluoromethyl)phosphonic acid], the IC50 in experiment [1] lay in the range of 300 to 3000 nM; in experiment [2], 1000 to 10000 nM.
With `CC(=O)N1CC[C@H]2CC[C@@H](C(=O)Nc3ccc4nccn4c3)N2C(=O)[C@@H](NC(=O)c2cc3cc(C(F)(F)P(=O)(O)O)ccc3s2)C1` [Compound 72, ((2-(((5S,8S,10aR)-3-acetyl-8-(imidazo[1,2-a]pyridin-6-ylcarbamoyl)-6-oxodecahydropyrrolo[1,2-a][1,5]diazocin-5-yl)carbamoyl)benzo[b]thiophen-5-yl)difluoromethyl)phosphonic acid], the half-inhibitory concentration (IC50) was in the range of 300 to 3000 nM in experiment [1] and 1000 to 10000 nM in experiment [2].
With `CC(=O)N1CC[C@H]2CC[C@@H](C(=O)Nc3ccc(OCCCN(C)C)cc3)N2C(=O)[C@@H](NC(=O)c2cc3cc(C(F)(F)P(=O)(O)O)ccc3s2)C1` [Compound 73, ((2-(((5S,8S,10aR)-3-acetyl-8-((4-(3-(dimethylamino)propoxy)phenyl)carbamoyl)-6-oxodecahydropyrrolo[1,2-a][1,5]diazocin-5-yl)carbamoyl)benzo[b]thiophen-5-yl)difluoromethyl)phosphonic acid], the 50% inhibitory concentration (IC50) in experiment [1] is 3000 to 30000 nM; in experiment [2], 1000 to 10000 nM.
As to `CC(=O)N1CC[C@H]2CC[C@@H](C(=O)Nc3ccc(OCCN(C)C)cc3)N2C(=O)[C@@H](NC(=O)c2cc3cc(C(F)(F)P(=O)(O)O)ccc3s2)C1` [Compound 75, ((2-(((5S,8S,10aR)-3-acetyl-8-((4-(2-(dimethylamino)ethoxy)phenyl)carbamoyl)-6-oxodecahydropyrrolo[1,2-a][1,5]diazocin-5-yl)carbamoyl)benzo[b]thiophen-5-yl)difluoromethyl)phosphonic acid], the IC50 in experiment [1] was in the range of 3000 to 30000 nM; in experiment [2] it was 1000 to 10000 nM.
In the same order, the values of `CC(=O)N1CC[C@H]2CC[C@@H](C(=O)N3CCC4(C3)C(=O)Nc3ccccc34)N2C(=O)[C@@H](NC(=O)c2cc3cc(C(F)(F)P(=O)(O)O)ccc3s2)C1` (stereo partly drawn) [Compound 76, ((2-(((5S,8S,10aR)-3-acetyl-6-oxo-8-(2-oxospiro[indoline-3,3′-pyrrolidine]-1′-carbonyl)decahydropyrrolo[1,2-a][1,5]diazocin-5-yl)carbamoyl)benzo[b]thiophen-5-yl)difluoromethyl)phosphonic acid] are 300 to 3000 nM and 100 to 1000 nM.
For `CC(=O)N1CC[C@H]2CC[C@@H](C(=O)N3CC(C(=O)N4CCOCC4)C3)N2C(=O)[C@@H](NC(=O)c2cc3cc(C(F)(F)P(=O)(O)O)ccc3s2)C1` [Compound 77, ((2-(((5S,8S,10aR)-3-acetyl-8-(3-(morpholine-4-carbonyl)azetidine-1-carbonyl)-6-oxodecahydropyrrolo[1,2-a][1,5]diazocin-5-yl)carbamoyl)benzo[b]thiophen-5-yl)difluoromethyl)phosphonic acid], the IC50 in experiment [1] was in the range of 3000 to 30000 nM; in experiment [2] it was 100 to 1000 nM.
`CC(=O)N1CC[C@H]2CC[C@@H](C(=O)N3CCC(N4CCCS4(=O)=O)C3)N2C(=O)[C@@H](NC(=O)c2cc3cc(C(F)(F)P(=O)(O)O)ccc3s2)C1` (stereo partly drawn) [Compound 78, ((2-(((5S,8S,10aR)-3-acetyl-8-(3-(1,1-dioxidoisothiazolidin-2-yl)pyrrolidine-1-carbonyl)-6-oxodecahydropyrrolo[1,2-a][1,5]diazocin-5-yl)carbamoyl)benzo[b]thiophen-5-yl)difluoromethyl)phosphonic acid]: the half-inhibitory concentration (IC50) was in the range of 300 to 3000 nM in experiment [1] and 100 to 1000 nM in experiment [2].
For `CC(=O)N1CC[C@H]2CC[C@@H](C(=O)N3C[C@@H]4[C@H](C3)[C@H]3CS(=O)(=O)C[C@@H]43)N2C(=O)[C@@H](NC(=O)c2cc3cc(C(F)(F)P(=O)(O)O)ccc3s2)C1` [Compound 79, ((2-(((5S,8S,10aR)-3-acetyl-8-((3aR,3bS,6aR,6bS)-2,2-dioxidooctahydro-1H-thieno[3′,4′:3,4]cyclobuta[1,2-c]pyrrole-5-carbonyl)-6-oxodecahydropyrrolo[1,2-a][1,5]diazocin-5-yl)carbamoyl)benzo[b]thiophen-5-yl)difluoromethyl)phosphonic acid], in that order: 300 to 3000 nM and 100 to 1000 nM.
On to `CC(=O)N1CC[C@H]2CC[C@@H](C(=O)N3CC4CCS(=O)(=O)CC4C3)N2C(=O)[C@@H](NC(=O)c2cc3cc(C(F)(F)P(=O)(O)O)ccc3s2)C1` (stereo partly drawn) [Compound 80, ((2-(((5S,8S,10aR)-3-acetyl-8-(5,5-dioxidooctahydrothiopyrano[3,4-c]pyrrole-2-carbonyl)-6-oxodecahydropyrrolo[1,2-a][1,5]diazocin-5-yl)carbamoyl)benzo[b]thiophen-5-yl)difluoromethyl)phosphonic acid], for which the IC50 in experiment [1] was 300 to 3000 nM; in experiment [2] it was 100 to 1000 nM.
Turning to `CC(=O)N1CC[C@H]2CC[C@@H](C(=O)N3CCC(c4cnc5n4CCCC5)C3)N2C(=O)[C@@H](NC(=O)c2cc3cc(C(F)(F)P(=O)(O)O)ccc3s2)C1` (stereo partly drawn) [Compound 81, ((2-(((5S,8S,10aR)-3-acetyl-6-oxo-8-(3-(5,6,7,8-tetrahydroimidazo[1,2-a]pyridin-3-yl)pyrrolidine-1-carbonyl)decahydropyrrolo[1,2-a][1,5]diazocin-5-yl)carbamoyl)benzo[b]thiophen-5-yl)difluoromethyl)phosphonic acid], the half-inhibitory concentration (IC50) in experiment [1] lay in the range of 300 to 3000 nM; in experiment [2] it was 100 to 1000 nM.
In the same order, the values of `CC(=O)N1CC[C@H]2CC[C@@H](C(=O)N3CCC(OCc4cncs4)C3)N2C(=O)[C@@H](NC(=O)c2cc3cc(C(F)(F)P(=O)(O)O)ccc3s2)C1` (stereo partly drawn) [Compound 82, ((2-(((5S,8S,10aR)-3-acetyl-6-oxo-8-(3-(thiazol-5-ylmethoxy)pyrrolidine-1-carbonyl)decahydropyrrolo[1,2-a][1,5]diazocin-5-yl)carbamoyl)benzo[b]thiophen-5-yl)difluoromethyl)phosphonic acid] are 300 to 3000 nM and 1000 to 10000 nM.
Turning to `COC1CCN(C2CCN(C(=O)[C@@H]3CC[C@@H]4CCN(C(C)=O)C[C@H](NC(=O)c5cc6cc(C(F)(F)P(=O)(O)O)ccc6s5)C(=O)N43)C2)CC1` (stereo partly drawn) [Compound 83, ((2-(((5S,8S,10aR)-3-acetyl-8-(3-(4-methoxypiperidin-1-yl)pyrrolidine-1-carbonyl)-6-oxodecahydropyrrolo[1,2-a][1,5]diazocin-5-yl)carbamoyl)benzo[b]thiophen-5-yl)difluoromethyl)phosphonic acid], the IC50 in experiment [1] lay in the range of 3000 to 30000 nM; in experiment [2], 1000 to 10000 nM.
As to `CC(=O)Nc1ccn(C2CCN(C(=O)[C@@H]3CC[C@@H]4CCN(C(C)=O)C[C@H](NC(=O)c5cc6cc(C(F)(F)P(=O)(O)O)ccc6s5)C(=O)N43)C2)n1` (stereo partly drawn) [Compound 84, ((2-(((5S,8S,10aR)-8-(3-(3-acetamido-1H-pyrazol-1-yl)pyrrolidine-1-carbonyl)-3-acetyl-6-oxodecahydropyrrolo[1,2-a][1,5]diazocin-5-yl)carbamoyl)benzo[b]thiophen-5-yl)difluoromethyl)phosphonic acid], the IC50 is 300 to 3000 nM in experiment [1] and 100 to 1000 nM in experiment [2].
